The values below come from the supplement of paper PMC6965134.

± gives the standard deviation of the averaged measurements.

The nature of the series: TIMS collisional cross section (CCS, N2) of the lipid ion; higher = larger ion cross section. The following applies: ionization mode: positive, one isomer drawn.

For `CCCCCC/C=C\CCCCCCCC(=O)OC[C@@H](O)COP(=O)(O)OCCN` [LPE 16:1] (ion (formula + adduct): [C21H42NO7P+H] 1+), the “TIMS collisional cross section” value (sample type: Liver) is recorded as 207.8 Å² and the “TIMS collisional cross section” value (sample type: plasma) turned out to be 207.4 Å². `CCCCC/C=C\C/C=C\C/C=C\C/C=C\CCCC(=O)O[C@H](COC(=O)CCCCCCCCCCCCCCCCC)COP(=O)([O-])OCC[N+](C)(C)C` [PC 18:0@_20:4] (ion (formula + adduct): [C46H84NO8P+H] 1+): the “TIMS collisional cross section” value (sample type: plasma) turned out to be 296 Å². As for `CCCCC/C=C\C/C=C\C/C=C\C/C=C\CCCC(=O)O[C@H](COC(=O)CCCC/C=C\C/C=C\C/C=C\CCCCC)COP(=O)([O-])OCC[N+](C)(C)C` [PC 18:3_20:4] (ion (formula + adduct): [C46H78NO8P+H] 1+), the “TIMS collisional cross section” value (sample type: Liver) is 286.7 Å².

With `CCCCCCCC/C=C\CCCCCCCC(=O)O[C@H](COC(=O)CCCCCCCCCCCCCCCC)COC(=O)CCCCCCCCCCCCCCCCCCCCC` [TG 17:0_18:1_22:0] (ion (formula + adduct): [C60H114O6+NH4] 1+), the “TIMS collisional cross section” value by setting is: (sample type: Liver) 338.8 Å²; (sample type: plasma) 338.7 Å². As to `CCCCCCC/C=C\CCCCCCCC(=O)O[C@@H](COC(=O)CCCCCCC/C=C\CCCCCCCC)COC(=O)CCCCCCCCCCCCC` [TG 14:0_17:1_18:1] (ion (formula + adduct): [C52H96O6+NH4] 1+), the “TIMS collisional cross section” value reads like this: (sample type: HeLa) 312.9 Å²; (sample type: Liver) 313.6 Å². In the case of `CCCCC/C=C\C/C=C\CCCCCCCC(=O)O[C@H](COCCCCCCCCCCCCCCCCCC)COP(=O)([O-])OCC[N+](C)(C)C` [PC O- 18:0@_18:2] (ion (formula + adduct): [C44H86NO7P+H] 1+), the “TIMS collisional cross section” value (sample type: plasma) is on record as 294.7 Å². For `CC/C=C\C/C=C\C/C=C\C/C=C\C/C=C\CCCCCC(=O)OC[C@@H](COC(=O)CCCCCCC/C=C\CCCCCCC)OC(=O)CCCCCCC/C=C\CCCCCCCC` [TG 17:1_18:1_22:5] (ion (formula + adduct): [C60H102O6+NH4] 1+), under “sample type: HeLa”, the “TIMS collisional cross section” value stood at 328.8 Å².

In the case of `CCCCCC/C=C\CCCCCCCC(=O)O[C@H](COC(=O)CCCCCCCCCCCCCCC)COP(=O)([O-])OCC[N+](C)(C)C` [PC 16:0_16:1@] (ion (formula + adduct): [C40H78NO8P+H] 1+), for the setting “sample type: HeLa”, the “TIMS collisional cross section” value turned out to be 282 Å². As for `CCCCC/C=C\C/C=C\CCCCCCCC(=O)OC[C@H](CO)OC(=O)CCCCCCCCC/C=C\CCCCCCCC` [DG 18:2_20:1_0:0] (ion (formula + adduct): [C41H74O5+NH4] 1+), the “TIMS collisional cross section” value (sample type: Liver) was 268.2 Å². For `CCCCCCCCCCCCCCCC(=O)OC[C@@H](COC(=O)CCCCCCCCCCCCC)OC(=O)CCCCCCCCCCCCCC` [TG 14:0_15:0_16:0] (ion (formula + adduct): [C48H92O6+NH4] 1+), the “TIMS collisional cross section” value (sample type: Liver) was determined as 304.9 Å² and the “TIMS collisional cross section” value (sample type: plasma) came to 304.83 ± 0.05 Å².

As to `CCCCCCCCCCCCCCCCCCCC(=O)OC[C@@H](COC(=O)CCCCCCCCCCCCCCC)OC(=O)CCCCCCCCCCCCCCCCC` [TG 16:0_18:0_20:0] (ion (formula + adduct): [C57H110O6+NH4] 1+), the “TIMS collisional cross section” value (sample type: HeLa) was determined as 332.05 ± 0.21 Å² and the “TIMS collisional cross section” value (sample type: plasma) is given as 332.5 ± 0.14 Å². On to `CCCCC/C=C\C/C=C\C/C=C\C/C=C\CCCC(=O)O[C@H](COC(=O)CCCCCCC/C=C\CCCCCCCC)COP(=O)([O-])OCC[N+](C)(C)C` [PC 18:1@_20:4] (ion (formula + adduct): [C46H82NO8P+H] 1+), for which, for the setting “sample type: HeLa”, the “TIMS collisional cross section” value was found to be 292.7 Å². Regarding `CCCCC/C=C\C/C=C\CCCCCCCC(=O)O[C@H](COC(=O)CCCCCCC/C=C\CCCCCCCC)COC(=O)CCCCCCCCCCCCCCCCCCCCC` [TG 18:1_18:2_22:0] (ion (formula + adduct): [C61H112O6+NH4] 1+), the “TIMS collisional cross section” value (sample type: Liver) stood at 338.2 Å² and the “TIMS collisional cross section” value (sample type: plasma) amounted to 337.6 Å². Regarding `CCCCC/C=C\C/C=C\CCCCCCCC(=O)OC[C@H](COC(=O)CCCCCCC/C=C\CCCCCCCCC)OC(=O)CCCCCCC/C=C\C/C=C\CCCCC` [TG 18:2_18:2_19:1] (ion (formula + adduct): [C58H102O6+NH4] 1+), the “TIMS collisional cross section” value (sample type: Liver) is given as 325.1 Å². On to `CCCCC/C=C\C/C=C\CCCCCCCCCCCC(=O)OC[C@@H](COC(=O)CCCCCCC/C=C\CCCCCC)OC(=O)CCCCCCC/C=C\CCCCCCCCC` [TG 16:1_19:1_22:2] (ion (formula + adduct): [C60H108O6+NH4] 1+), for which the “TIMS collisional cross section” value (sample type: HeLa) is 332.3 Å². For `CCCCCCCC/C=C\CCCCCCCCCC(=O)OC[C@@H](COC(=O)CCCCCCCCCCCCCCCCC)OC(=O)CCCCCCC/C=C\CCCCCCCC` [TG 18:0_18:1_20:1] (ion (formula + adduct): [C59H110O6+NH4] 1+), the “TIMS collisional cross section” value is on record as 333.7 Å² (sample type: HeLa) and 334.1 Å² (sample type: plasma).
